Measurements published in PMC10254773, “Identification of Flavonoids from Scutellaria barbata D. Don as Inhibitors of HIV-1 and Cathepsin L Proteases and Their Structure–Activity Relationships” (Molecules, 2023).

Target: T1, HIV-1 PR (HIV-1 protease) (HIV-1 M:B_HXB2R, UniProt P04585)
T1 construct: gene gag-pol; mature protease cut from Gag-Pol polyprotein (Pr160Gag-Pol); SensoLyte 520 HIV-1 assay kit; homodimer
Assay type: biochemical
Settings: n = 3; read-out: HIV-1 PR / IC50 ± SD (mg/mL) (converted)

Compound | IC50 [µM]
O=c1cc(-c2ccc(O)cc2)oc2cc(O)cc(O)c12 [Apigenin] | 481
COc1c(O)cc(O)c2c(=O)cc(-c3ccccc3)oc12 [Wogonin] | 1410
O=c1cc(-c2ccc(O)cc2)oc2cc(O)c(O)c(O)c12 [Scutellarein] | 238
O=c1cc(-c2ccc(O)c(O)c2)oc2cc(O)cc(O)c12 [Luteolin] | 136
O=C1C[C@@H](c2ccc(O)cc2)Oc2cc(O)cc(O)c21 [Narigenin] | 661
O=C(O)[C@H]1O[C@@H](Oc2cc3oc(-c4ccccc4)cc(=O)c3c(O)c2O)[C@H](O)[C@@H](O)[C@@H]1O [Baicalin] | 1860
